Format in all cases: cell-based
The test system of assay [1] is cyclin D1. The assay is described as follows: Western blot of Cyclin D1, Example 6B. As to conditions: 24 h, compared to control (DMSO). How it is done:
Cells were plated at a density of 3×10^5 cells/well for 24 hrs. Representative compounds or DMSO alone was then added to the wells for 24 h at 250 nM (note: Compound F was administered at a concentration of 2 μM). Cells were trypsinised, pelleted, washed ×3 in PBS, and lysed using a 2% SDS lysis solution (Sigma—05030).
Western blot analysis was then carried out to look at Cyclin D1 (Abeam—ab134175), PRK8 (Sigma—P6248), Rb (Abeam—[…]) and GAPDH (Sigma—G9545) levels.

Assay [2] has as its system HT-29. The assay can be described thus: Cell proliferation assay. As to conditions: Homo sapiens, 72 hrs, read-out: Cell Viability: IC50. How it is done: (§1) Measurement of the inhibitive effect of compounds on cancer cell proliferation was performed. The assays were performed under the following conditions: Cells are harvested at a concentration of 4×10^4 cells/ml in media. Volumes of 100 μL/well of these cell suspensions were added to a 96 well plate using a multichannel pipette. Plates were gently agitated to ensure an even dispersion of cells over a given plate. Cells were then incubated at 37° C., 5% CO2 overnight. Following this, 100 μL of compound at varying concentrations was added to wells in triplicate. Control wells are those with 100 μL media containing 0.33% DMSO added to cell suspension (this is the equivalent volume of DMSO found in the highest concentration of drug). Plates were then gently agitated, as above, and incubated at 37° C., 5% CO2 for 72 hrs (control wells have reached 80-90% confluency). Assessment of cell proliferation in the presence of Compounds C and F was determined by the acid phosphatase assay.
(§2) Following the incubation period of 72 hrs, media was removed from the plates. Each well on the plate was washed twice with 100 μL PBS. This was then removed and 100 μL of freshly prepared phosphatase substrate (10 mM p-nitrophenol phosphate in 0.1M sodium acetate, 0.1% triton X-100, pH 5.5) was added to each well. The plates were then incubated in the dark at 37° C. for 2 hours. Color development was monitored during this time. The enzymatic reaction was stopped by the addition of 50 μL of 1N NaOH. The plate was read in a dual beam plate reader at 405 nm with a reference wavelength of 620 nm. The absorbance reading of the latter is subtracted from the former, and the effect of the drug on cell proliferation was then measured as a percentage against the control cells (DMSO), which is taken as 0% inhibition.

Assay [3] has as its system Calu-1. The assay can be described thus: Cell proliferation assay. The settings on record: Homo sapiens, 72 hrs, read-out: Cell Viability: IC50. On the procedure: as §1, §2
Assay [4] concerns KPL-1. The assay can be described thus: Cell proliferation assay. As to conditions: 72 hrs, read-out: Cell Viability: IC50. How it is done: as §1, §2
Assay [5] has as its system NCl-H292. The assay can be described thus: Cell proliferation assay. As to conditions: 72 hrs, read-out: Cell Viability: IC50. How it is done: as §1, §2
Assay [6] deals with MDA-MB-468. The assay is described as follows: Cell proliferation assay. As to conditions: Homo sapiens, 72 hrs, read-out: Cell Viability: IC50. How it is done: as §1, §2
For assay [7], the system named is NCl-H1395. The assay is described as follows: Cell proliferation assay. As to conditions: 72 hrs, read-out: Cell Viability: IC50. How it is done:
as §1, §2

The subject of assay [8] is LOVO. The assay can be described thus: Cell proliferation assay. As to conditions: Homo sapiens, 72 hrs, read-out: Cell Viability: IC50. On the procedure:
as §1, §2

Assay [9] has as its system COV504. The assay can be described thus: Cell proliferation assay. As to conditions: 72 hrs, read-out: Cell Viability: IC50. How it is done: as §1, §2
Assay [10] concerns Cyclin D. The assay is described as follows: Mechanistic study: Cyclin D western blot with or without epoxomicin. As to conditions: ES-2, 18 hours. On the procedure:
In order to establish that the decrease in Cyclin D seen after Compound 42 treatment is due to proteasomal degradation, ES-2, ovarian cancer cell line was treated with Compound 42 (250 nM) in the presence or absence of epoxomicin, a specific inhibitor of the proteasome (60 nM) for 18 hours. Following the treatment, western blotting for Cyclin D (FIG. 10A), Ub (FK-2) (FIG. 10B), and GAPDH control (bottom blot, below FIGS. 10A and 10B) was performed. Epoxomicin is a specific inhibitor of the proteasome.

Assay [11] has as its system cyclin D1. The assay is described as follows: Western blot of cellular biomarker cyclin D1. On the procedure:
(§3) Various cancer cells lines were treated with Compound 42 or palbociclib (control) to measure the expression of cyclin D, cyclin E, pRb, and Rb.
(§4) Day 1: 6 well plate was seeded with 3×10^5 cells/well with a final volume of 3 mL and incubated for 24 hours at 37° C.
(§5) Day 2: The media was removed and Compound 42 (see below for dose) or palbociclib (1 μM) as positive control were added to the wells the desired concentration in cell culture media, giving a final volume of 3 mL per well. The plate was incubated for 24 hours at 37° C. (or desired period).
(§6) Day 3: The media was removed from wells and washed ×3 with PBS. 500 μl of trypsin was added to the wells and incubate until cells detach. 500 μl media was added to neutralise trypsin, transferred to 2 ml Eppendorfs, and centrifuged (1500 RPM for 5 minutes). While spinning, the wells were washed with 1 mL PBS to collect any remaining cells. This wash was used to centrifuged cell pellet. After the first spin, the supernatant was discarded and the pellet was washed with PBS collected from the previous step. The centrifugation step was repeated and the supernatant was discarded and the pellet wash again with fresh PBS. The centrifugation and wash with PBS was repeated one more time. RIPA cell lysate buffer was prepared and Protease Inhibitor Cocktail was included. The supernatant was discarded and […] RIPA cell lysate buffer was added to the pellet. The protein concentration was determined using the BCA assay kit.
(§7) Day 4: Western blot analysis was performed. 4-12% Bis-Tris gel and MOPS running buffer was used. The running buffer was made to sufficient volume of running buffer to 1× concentration. 20 μg protein (v/v loading & reducing buffer) of each sample was loaded into wells. Some proteins may require more, or less, protein loaded. The gel was ran at standard settings 200 V for 45 minutes. Once gel has run, the gel was transferred for 7 minutes using the iBlot Blotting System. The membrane was blocked using 5% non-fat powdered milk* made up in 1×TBS containing 0.1% Tween (TBS-T and incubated for 1 hr with gentle rocking. The observation from the Western blot analysis is quantified in FIGS. 2-7D.
Cell lines A2780 (ovarian cell line with no cyclin D pathway mutations), ES-2 (ovarian cell line with cyclin D amplification, p53 mutation), OAW42, and SW626 were treated with DMSO (control), 250 nM of Compound 42, or 1 μM of Palbociclib. Treated cells were incubated for 24 hours and data represented in FIGS. 2-5 represents n=3.
In general terms: A western blot detects proteins with antibodies after separation by electrophoresis.

For assay [12], the system named is Rb. The assay can be described thus: Western blot of cellular biomarker Rb. On the procedure: as §3, §4, §5, §6
as §7, with “Once gel has run, the gel was transferred for 7 minutes using the iBlot Blotting System.” left out, “2-7D. […]” for “2-7D.”

[13] abbreviates: HT116, with increasing concentration.

These results are taken from patent US20210244712A1, “METHODS FOR TREATING PATIENTS WITH CANCER HAVING DEFECTS IN CYCLIN D REGULATION” (NysnoBio Ireland DAC, priority 2018, published 2021).

With `Cc1ccccc1C(=O)Nc1nc(NC(=O)c2ccccc2C)n(-c2ccccc2)n1` [Compound F, 2-methyl-N-[5-[(2-methylbenzoyl)amino]-1-phenyl-1,2,4-triazol-3-yl]benzamide], the “Cyclin D1 expression” value is “reduction of Cyclin D1 expression” in [1] (HCT-116, 2 μM) and “reduction of Cyclin D1 expression” in [1] (TOV-112, 2 μM). Besides, the half-inhibitory concentration (IC50) in [2] stood at 2.96 µM; in [3] it was 43.3 µM; in [4], 3.86 µM; in [5] it was 0.95 µM; in assay [6] it was 3.18 µM; in assay [7], 7.6 µM. In addition, the half-maximal inhibitory concentration (IC50) in assay [8] stood at 5.64 µM; in [9], 2 µM.

On to `Cc1ccccc1C(=O)Nc1nc(NC(=O)c2ccccc2C)n(-c2ccc(OC(F)(F)F)cc2)n1` [Compound 42, N,N′-(1-(4-(trifluoromethoxy)phenyl)-1H-1,2,4-triazole-3,5-diyl)bis(2-methylbenzamide)], for which the “cyclin D levels” value was “induced cyclin D levels to decrease” in assay [10] (Compound 42 250 nM alone); “decreases cyclin D levels” in assay [10] (Compound 42 250 nM alone, listed as compound 42); “returned cyclin D levels to normal (or slightly above)” in assay [10] (Compound 42 250 nM in the presence of epoxomicin 60 nM); “counterbalanced by adding epoxomicin” in assay [10] (Compound 42 250 nM in the presence of epoxomicin 60 nM, listed as compound 42). Moreover, the “Cyclin D1 expression” value in assay [11] (A2780, 250 nM Compound 42, 1 μM Palbociclib, 24 hours) is reported as “reduction of cyclin D1 expressions”; in assay [11] (ES-2, 250 nM Compound 42, 1 μM Palbociclib, 24 hours), “reduction of cyclin D1 expressions”; in assay [11] (setting [13]) it was “reduction”; in assay [11] (OAW42, 250 nM Compound 42, 1 μM Palbociclib, 24 hours), “reduction of cyclin D1 expressions”; in assay [11] (SW626, 250 nM Compound 42, 1 μM Palbociclib, 24 hours), “reduction of cyclin D1 expressions”; in assay [1] (HCT-116, 250 nM), “reduction of Cyclin D1 expression”. For the same compound, the “Cyclin D1 expression” value in assay [1] (TOV-112, 250 nM) is given as “reduction of Cyclin D1 expression”. For the same compound, the Rb expression result was “reduction of Rb expression” in assay [12] (ES-2, 250 nM Compound 42, 24 hours, compared to palbociclib 1 μM); “reduction” in assay [12] (setting [13]); “reduction of Rb expression” in assay [12] (OAW42, 250 nM Compound 42, 24 hours, compared to palbociclib 1 μM).

One may read the IC50 as the concentration that gives 50% inhibition.
